Data published in the kinase profiling compilation of Christmann-Franck et al. (2016).
Each block holds one molecule with its values, some of them ahead of it.

Columns and labels:
Experiment in all cases: Caliper, Mobility shift assay off-chip
[1] = target: INSR (human) (UniProt P06213)
[2] = target: FGFR4 (human) (UniProt P22455)
[3] = target: MARK2 (human) (UniProt Q7KZI7)
[4] = target: CSNK1A1 (human) (UniProt P48729)
[5] = target: NEK2 (human) (UniProt P51955)
[6] = target: RPS6KA2 KD1 KD2 (human) (UniProt Q15349)
[7] = target: CAMK2D (human) (UniProt Q13557)
[8] = tested on: FGFR2 (human), P21802 [N549H]
[9] = target: MAPK1 (human) (UniProt P28482)
[10] = target: PRKCB1 (human) (UniProt P05771)
[11] = tested on: ABL1 (human), P00519 [H396P]
[12] = target: MAPKAPK5 (human) (UniProt Q8IW41)
[13] = target: RPS6KA3 KD1 KD2 (human) (UniProt P51812)
[14] = target: CAMK4 (human) (UniProt Q16566)
[15] = target: PRKCB2 (human) (UniProt P05771)
[16] = target: MAPK14 (human) (UniProt Q16539)
[17] = target: FER (human) (UniProt P16591)
[18] = target: BMX (human) (UniProt P51813)
[19] = target: MAPKAPK2 (human) (UniProt P49137)
[20] = target: SYK (human) (UniProt P43405)
[21] = target: ROCK2 (human) (UniProt O75116)
[22] = target: MAPK3 (human) (UniProt P27361)
[23] = target: PRKD1 (human) (UniProt Q15139)
[24] = target: AURKB (human) (UniProt Q96GD4)
[25] = tested on: ABL1 (human), P00519 [Q252H]
[26] = target: PRKCA (human) (UniProt P17252)
[27] = target: IKBKB (human) (UniProt O14920)
[28] = target: BTK (human) (UniProt Q06187)
[29] = target: SGK2 (human) (UniProt Q9HBY8)
[30] = target: MARK3 (human) (UniProt P27448)
[31] = target: EGFR (human) (UniProt P00533)
[32] = tested on: ABL1 (human), P00519 [T315I]
[33] = target: RPS6KA5 KD1 KD2 (human) (UniProt O75582)
[34] = target: RPS6KB1 (human) (UniProt P23443)

Sequence of MAPK1 (human) (P28482 whole entry, looked up): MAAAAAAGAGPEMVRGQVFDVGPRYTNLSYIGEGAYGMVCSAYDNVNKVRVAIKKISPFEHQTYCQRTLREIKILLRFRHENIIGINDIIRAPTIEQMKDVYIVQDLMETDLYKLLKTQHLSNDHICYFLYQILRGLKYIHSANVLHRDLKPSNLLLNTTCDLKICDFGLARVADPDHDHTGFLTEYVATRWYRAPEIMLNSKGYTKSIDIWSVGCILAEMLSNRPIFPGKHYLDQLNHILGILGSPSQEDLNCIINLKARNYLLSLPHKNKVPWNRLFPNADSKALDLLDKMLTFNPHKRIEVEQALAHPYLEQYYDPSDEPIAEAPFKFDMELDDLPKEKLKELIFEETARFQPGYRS
Sequence of NEK2 (human) (P51955 whole entry, looked up): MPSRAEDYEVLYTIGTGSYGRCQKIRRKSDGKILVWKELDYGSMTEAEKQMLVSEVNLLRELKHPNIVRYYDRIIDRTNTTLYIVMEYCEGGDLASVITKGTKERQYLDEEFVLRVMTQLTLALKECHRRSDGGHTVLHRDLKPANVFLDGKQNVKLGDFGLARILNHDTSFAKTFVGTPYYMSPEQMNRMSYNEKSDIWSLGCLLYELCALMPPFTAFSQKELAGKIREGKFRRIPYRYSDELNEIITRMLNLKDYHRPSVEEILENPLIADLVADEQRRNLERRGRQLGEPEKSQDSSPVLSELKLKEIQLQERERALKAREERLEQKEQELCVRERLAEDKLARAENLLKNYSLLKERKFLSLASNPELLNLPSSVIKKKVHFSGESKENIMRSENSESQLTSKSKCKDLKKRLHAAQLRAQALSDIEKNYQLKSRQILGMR
Sequence of INSR (human) (P06213 whole entry, looked up): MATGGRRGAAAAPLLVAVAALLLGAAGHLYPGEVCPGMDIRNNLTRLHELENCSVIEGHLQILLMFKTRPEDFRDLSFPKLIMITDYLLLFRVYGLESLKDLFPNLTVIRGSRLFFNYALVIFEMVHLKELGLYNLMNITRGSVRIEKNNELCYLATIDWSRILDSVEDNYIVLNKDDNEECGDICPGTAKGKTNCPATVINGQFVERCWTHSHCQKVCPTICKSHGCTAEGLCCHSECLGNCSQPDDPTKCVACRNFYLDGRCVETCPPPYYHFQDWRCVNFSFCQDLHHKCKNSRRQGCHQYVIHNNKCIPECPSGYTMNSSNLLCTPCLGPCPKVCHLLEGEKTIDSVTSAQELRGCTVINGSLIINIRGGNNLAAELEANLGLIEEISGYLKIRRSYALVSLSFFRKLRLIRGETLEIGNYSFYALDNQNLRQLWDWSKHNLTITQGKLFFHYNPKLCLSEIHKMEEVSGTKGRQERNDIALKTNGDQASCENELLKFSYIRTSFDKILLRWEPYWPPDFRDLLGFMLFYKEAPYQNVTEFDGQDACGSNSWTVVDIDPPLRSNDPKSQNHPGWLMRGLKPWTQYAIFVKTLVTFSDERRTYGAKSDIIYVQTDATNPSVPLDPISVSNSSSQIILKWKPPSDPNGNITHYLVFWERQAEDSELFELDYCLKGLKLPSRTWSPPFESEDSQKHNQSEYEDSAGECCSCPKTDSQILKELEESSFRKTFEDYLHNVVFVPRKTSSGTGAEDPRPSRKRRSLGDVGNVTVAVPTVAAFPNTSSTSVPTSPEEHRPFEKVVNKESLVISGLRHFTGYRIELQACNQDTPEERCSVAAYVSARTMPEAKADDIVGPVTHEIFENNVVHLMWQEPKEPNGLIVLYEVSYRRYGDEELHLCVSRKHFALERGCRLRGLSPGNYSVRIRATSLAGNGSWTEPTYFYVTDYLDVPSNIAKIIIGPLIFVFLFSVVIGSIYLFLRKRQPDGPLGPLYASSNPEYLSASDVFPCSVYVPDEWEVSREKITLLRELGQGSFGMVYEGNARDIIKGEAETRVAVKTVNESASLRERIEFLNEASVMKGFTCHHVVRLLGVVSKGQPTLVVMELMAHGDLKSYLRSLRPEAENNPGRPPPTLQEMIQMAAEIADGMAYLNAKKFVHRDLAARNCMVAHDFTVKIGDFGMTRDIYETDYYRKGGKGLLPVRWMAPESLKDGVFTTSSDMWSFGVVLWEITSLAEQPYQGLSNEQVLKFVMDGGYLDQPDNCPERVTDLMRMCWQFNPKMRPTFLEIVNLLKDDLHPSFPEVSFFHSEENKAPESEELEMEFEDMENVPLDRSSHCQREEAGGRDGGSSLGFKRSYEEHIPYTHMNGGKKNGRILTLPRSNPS
Sequence of BMX (human) (P51813 whole entry, looked up): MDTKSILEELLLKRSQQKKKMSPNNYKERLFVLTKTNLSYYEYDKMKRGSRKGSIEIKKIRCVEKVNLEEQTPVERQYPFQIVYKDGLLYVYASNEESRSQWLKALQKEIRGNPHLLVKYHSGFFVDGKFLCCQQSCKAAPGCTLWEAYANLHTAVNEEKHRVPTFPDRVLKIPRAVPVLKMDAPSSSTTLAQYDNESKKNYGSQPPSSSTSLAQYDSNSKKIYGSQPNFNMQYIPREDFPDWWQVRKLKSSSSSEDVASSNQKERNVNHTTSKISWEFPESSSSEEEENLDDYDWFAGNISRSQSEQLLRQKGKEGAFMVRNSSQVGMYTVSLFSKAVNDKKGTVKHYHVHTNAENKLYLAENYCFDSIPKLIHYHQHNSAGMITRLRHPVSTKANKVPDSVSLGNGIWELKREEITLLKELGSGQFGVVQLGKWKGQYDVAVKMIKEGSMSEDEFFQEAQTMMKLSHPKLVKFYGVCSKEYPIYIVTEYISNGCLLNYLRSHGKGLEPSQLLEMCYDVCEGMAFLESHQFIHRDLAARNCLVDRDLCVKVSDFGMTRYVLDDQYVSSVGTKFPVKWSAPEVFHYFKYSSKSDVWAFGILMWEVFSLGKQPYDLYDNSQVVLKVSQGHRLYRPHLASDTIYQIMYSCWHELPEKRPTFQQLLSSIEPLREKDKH
Sequence of CAMK2D (human) (Q13557 whole entry, looked up): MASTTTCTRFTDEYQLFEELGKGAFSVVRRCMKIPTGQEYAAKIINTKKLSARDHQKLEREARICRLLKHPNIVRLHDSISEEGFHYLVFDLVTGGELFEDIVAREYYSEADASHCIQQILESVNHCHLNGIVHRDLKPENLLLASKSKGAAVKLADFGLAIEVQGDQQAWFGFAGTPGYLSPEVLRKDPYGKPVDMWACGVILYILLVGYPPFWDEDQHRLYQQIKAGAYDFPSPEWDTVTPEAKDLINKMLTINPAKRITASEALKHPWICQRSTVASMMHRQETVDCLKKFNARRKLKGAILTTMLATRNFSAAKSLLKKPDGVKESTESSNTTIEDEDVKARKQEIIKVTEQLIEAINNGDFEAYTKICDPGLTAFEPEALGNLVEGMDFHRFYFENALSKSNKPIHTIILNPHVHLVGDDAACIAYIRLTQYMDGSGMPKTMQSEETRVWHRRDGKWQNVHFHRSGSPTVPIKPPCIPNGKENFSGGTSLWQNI
Sequence of CSNK1A1 (human) (P48729 whole entry, looked up): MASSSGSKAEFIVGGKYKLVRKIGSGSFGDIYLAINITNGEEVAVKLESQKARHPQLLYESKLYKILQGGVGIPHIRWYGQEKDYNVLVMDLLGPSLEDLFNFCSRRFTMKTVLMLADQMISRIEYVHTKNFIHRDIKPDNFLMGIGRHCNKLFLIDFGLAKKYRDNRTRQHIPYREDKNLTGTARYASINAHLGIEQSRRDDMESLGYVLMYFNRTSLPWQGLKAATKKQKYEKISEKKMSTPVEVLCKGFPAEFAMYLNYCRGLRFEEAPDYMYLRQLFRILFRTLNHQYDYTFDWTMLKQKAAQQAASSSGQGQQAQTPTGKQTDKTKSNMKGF
Sequence of IKBKB (human) (O14920 whole entry, looked up): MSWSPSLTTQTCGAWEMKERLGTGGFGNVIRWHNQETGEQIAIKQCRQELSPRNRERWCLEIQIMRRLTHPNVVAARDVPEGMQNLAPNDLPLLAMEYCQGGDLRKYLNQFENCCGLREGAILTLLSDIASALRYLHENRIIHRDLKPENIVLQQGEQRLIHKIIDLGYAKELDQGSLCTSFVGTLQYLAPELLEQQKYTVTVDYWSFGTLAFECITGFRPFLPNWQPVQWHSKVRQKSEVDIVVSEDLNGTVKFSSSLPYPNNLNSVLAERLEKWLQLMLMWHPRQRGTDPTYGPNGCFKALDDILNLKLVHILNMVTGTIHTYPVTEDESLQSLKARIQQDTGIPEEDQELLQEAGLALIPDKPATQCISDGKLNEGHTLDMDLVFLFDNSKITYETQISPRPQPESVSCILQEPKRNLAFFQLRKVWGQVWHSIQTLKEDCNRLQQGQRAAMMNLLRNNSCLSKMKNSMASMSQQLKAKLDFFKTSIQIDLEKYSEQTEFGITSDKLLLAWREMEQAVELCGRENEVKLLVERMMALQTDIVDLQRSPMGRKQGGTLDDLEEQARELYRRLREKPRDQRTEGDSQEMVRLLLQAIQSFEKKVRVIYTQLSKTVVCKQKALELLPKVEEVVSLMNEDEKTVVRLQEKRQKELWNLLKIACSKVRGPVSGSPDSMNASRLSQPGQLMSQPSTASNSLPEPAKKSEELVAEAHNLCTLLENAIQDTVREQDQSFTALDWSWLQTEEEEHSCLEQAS
Sequence of MAPKAPK2 (human) (P49137 whole entry, looked up): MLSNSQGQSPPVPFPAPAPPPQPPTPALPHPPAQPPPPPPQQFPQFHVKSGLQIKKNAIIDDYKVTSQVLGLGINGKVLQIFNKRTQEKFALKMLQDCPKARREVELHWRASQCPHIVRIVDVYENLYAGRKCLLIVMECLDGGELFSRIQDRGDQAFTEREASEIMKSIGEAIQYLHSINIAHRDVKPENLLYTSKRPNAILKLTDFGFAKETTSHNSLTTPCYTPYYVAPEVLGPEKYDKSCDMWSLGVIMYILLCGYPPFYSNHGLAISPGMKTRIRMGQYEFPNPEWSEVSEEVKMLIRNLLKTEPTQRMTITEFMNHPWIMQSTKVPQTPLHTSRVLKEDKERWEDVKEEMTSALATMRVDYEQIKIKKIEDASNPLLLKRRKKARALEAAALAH

- inhibition ([1]; compound 0.01 µM): -1.4%
- inhibition ([1]; compound 0.1 µM): -2.5%
- inhibition ([2]; compound 0.01 µM): 12.6%
- inhibition ([2]; compound 0.1 µM): -18.4%
- inhibition ([3]; compound 0.01 µM): -7%
- inhibition ([3]; compound 0.1 µM): -10%
- inhibition ([4]; compound 0.01 µM): 1.4%
- inhibition ([4]; compound 0.1 µM): -0.5%
- inhibition ([5]; compound 0.01 µM): -2.6%
- inhibition ([5]; compound 0.1 µM): -2.3%
- inhibition ([6]; compound 0.01 µM): -8.9%
- inhibition ([6]; compound 0.1 µM): 2%
- inhibition ([7]; compound 0.01 µM): 1.7%
- inhibition ([7]; compound 0.1 µM): 13.2%
- inhibition ([8]; compound 0.01 µM): -4.6%
- inhibition ([8]; compound 0.1 µM): 3.3%
- inhibition ([9]; compound 0.01 µM): -2.5%
- inhibition ([9]; compound 0.1 µM): -0.1%
- inhibition ([10]; compound 0.01 µM): 4.1%
- inhibition ([10]; compound 0.1 µM): 6.7%
- inhibition ([11]; compound 0.01 µM): 4.8%
- inhibition ([11]; compound 0.1 µM): -2.5%
- inhibition ([12]; compound 0.01 µM): -4.7%
- inhibition ([12]; compound 0.1 µM): 1.6%
- inhibition ([13]; compound 0.01 µM): -1.1%
- inhibition ([13]; compound 0.1 µM): 8.1%
- inhibition ([14]; compound 0.01 µM): 2.8%
- inhibition ([14]; compound 0.1 µM): -12.8%
- inhibition ([15]; compound 0.01 µM): 14.8%
- inhibition ([15]; compound 0.1 µM): 6%
- inhibition ([16]; compound 0.01 µM): -1.2%
- inhibition ([16]; compound 0.1 µM): -6.5%
- inhibition ([17]; compound 0.01 µM): -6.3%
- inhibition ([17]; compound 0.1 µM): 0.8%
- inhibition ([18]; compound 0.01 µM): -12.1%
- inhibition ([18]; compound 0.1 µM): -3.8%
- inhibition ([19]; compound 0.01 µM): 0.4%
- inhibition ([19]; compound 0.1 µM): -1.9%
- inhibition ([20]; compound 0.01 µM): -4.6%
- inhibition ([20]; compound 0.1 µM): 6.2%
- inhibition ([21]; compound 0.01 µM): 5.8%
- inhibition ([21]; compound 0.1 µM): 8.4%
- inhibition ([22]; compound 0.01 µM): -1%
- inhibition ([22]; compound 0.1 µM): 1.7%
- inhibition ([23]; compound 0.01 µM): -2.8%
- inhibition ([23]; compound 0.1 µM): -4.1%
- inhibition ([24]; compound 0.01 µM): 3.2%
- inhibition ([24]; compound 0.1 µM): 17%
- inhibition ([25]; compound 0.01 µM): 3.6%
- inhibition ([25]; compound 0.1 µM): 26.3%
- inhibition ([26]; compound 0.01 µM): 0.2%
- inhibition ([26]; compound 0.1 µM): 1.3%
- inhibition ([27]; compound 0.01 µM): -0.2%
- inhibition ([27]; compound 0.1 µM): 0.6%
- inhibition ([28]; compound 0.01 µM): 5.6%
- inhibition ([28]; compound 0.1 µM): 5.1%
- inhibition ([29]; compound 0.01 µM): -4.2%
- inhibition ([29]; compound 0.1 µM): 4.7%
- inhibition ([30]; compound 0.01 µM): -1.6%
- inhibition ([30]; compound 0.1 µM): -2.2%
- inhibition ([31]; compound 0.01 µM): -19.5%
- inhibition ([31]; compound 0.1 µM): -36.5%
- inhibition ([32]; compound 0.01 µM): 19.6%
- inhibition ([32]; compound 0.1 µM): -2.4%
- inhibition ([33]; compound 0.01 µM): -5.1%
- inhibition ([33]; compound 0.1 µM): -2.9%
- inhibition ([34]; compound 0.01 µM): 6.8%
- inhibition ([34]; compound 0.1 µM): -1.3%
Structure (SMILES): O=c1c2cc(CS(=O)(=O)NCc3ccccn3)ccc2ccc2ncc(C3CCNCC3)cc12

- inhibition ([1]; compound 0.1 µM): 3.4%
- inhibition ([1]; compound 1.0 µM): -0.3%
- inhibition ([2]; compound 0.1 µM): 8.9%
- inhibition ([2]; compound 1.0 µM): 22.4%
- inhibition ([3]; compound 0.1 µM): -3.7%
- inhibition ([3]; compound 1.0 µM): 12.6%
- inhibition ([4]; compound 0.1 µM): -7.8%
- inhibition ([4]; compound 1.0 µM): 7.2%
- inhibition ([5]; compound 0.1 µM): -6%
- inhibition ([5]; compound 1.0 µM): -4.9%
- inhibition ([6]; compound 0.1 µM): -5.9%
- inhibition ([6]; compound 1.0 µM): 9.6%
- inhibition ([7]; compound 1.0 µM): -1.3%
- inhibition ([8]; compound 0.1 µM): 16%
- inhibition ([8]; compound 1.0 µM): 57.6%
- inhibition ([9]; compound 0.1 µM): -4%
- inhibition ([9]; compound 1.0 µM): 1.8%
- inhibition ([10]; compound 0.1 µM): -7.7%
- inhibition ([10]; compound 1.0 µM): 8.8%
- inhibition ([11]; compound 0.1 µM): -1.8%
- inhibition ([11]; compound 1.0 µM): 42.1%
- inhibition ([12]; compound 0.1 µM): 10.5%
- inhibition ([12]; compound 1.0 µM): 3%
- inhibition ([13]; compound 0.1 µM): -1.9%
- inhibition ([13]; compound 1.0 µM): 12.9%
- inhibition ([14]; compound 0.1 µM): -0.2%
- inhibition ([14]; compound 1.0 µM): 8%
- inhibition ([15]; compound 0.1 µM): 2.8%
- inhibition ([15]; compound 1.0 µM): 8.1%
- inhibition ([16]; compound 0.1 µM): -4.5%
- inhibition ([16]; compound 1.0 µM): 1.9%
- inhibition ([17]; compound 0.1 µM): 24.1%
- inhibition ([17]; compound 1.0 µM): -2.5%
- inhibition ([18]; compound 0.1 µM): 1.8%
- inhibition ([18]; compound 1.0 µM): 8%
- inhibition ([19]; compound 0.1 µM): -0.4%
- inhibition ([19]; compound 1.0 µM): 2.9%
- inhibition ([20]; compound 0.1 µM): 8.7%
- inhibition ([20]; compound 1.0 µM): 15.8%
- inhibition ([21]; compound 0.1 µM): 21.3%
- inhibition ([21]; compound 1.0 µM): 20.8%
- inhibition ([22]; compound 0.1 µM): 0.9%
- inhibition ([22]; compound 1.0 µM): -7.3%
- inhibition ([23]; compound 0.1 µM): -0.4%
- inhibition ([23]; compound 1.0 µM): 1.9%
- inhibition ([24]; compound 0.1 µM): 37.1%
- inhibition ([24]; compound 1.0 µM): 80.7%
- inhibition ([25]; compound 0.1 µM): 6.9%
- inhibition ([25]; compound 1.0 µM): 51.8%
- inhibition ([26]; compound 0.1 µM): 0.1%
- inhibition ([26]; compound 1.0 µM): -10.6%
- inhibition ([27]; compound 0.1 µM): 10%
- inhibition ([27]; compound 1.0 µM): 18.6%
- inhibition ([28]; compound 0.1 µM): 4.7%
- inhibition ([28]; compound 1.0 µM): 4.9%
- inhibition ([29]; compound 0.1 µM): 1.8%
- inhibition ([29]; compound 1.0 µM): 3.7%
- inhibition ([30]; compound 0.1 µM): -1.8%
- inhibition ([30]; compound 1.0 µM): 5.3%
- inhibition ([31]; compound 0.1 µM): -4.8%
- inhibition ([31]; compound 1.0 µM): 7%
- inhibition ([32]; compound 0.1 µM): 3.3%
- inhibition ([32]; compound 1.0 µM): 41.1%
- inhibition ([33]; compound 0.1 µM): -3.5%
- inhibition ([33]; compound 1.0 µM): 8.1%
- inhibition ([34]; compound 0.1 µM): -1%
- inhibition ([34]; compound 1.0 µM): -6.2%
Structure (SMILES): CN(c1ccc2ccc3ncc(-c4cnn(C)c4)cc3c(=O)c2c1)S(=O)(=O)NCc1ccccn1
